The record followed here is publication PMC7374170, “TRIB3-EGFR interaction promotes lung cancer progression and defines a therapeutic target” (Nature Communications, 2020).

Test [1] relates to EGFR signaling proteins in xenograft tumors. Put plainly: Immunoblot / CO-IP of xenograft tumor tissue. The test is classed as in vivo. The following applies: NCI-H1975 inoculated mice, long-term treatment. A general note: Immunoblotting shows a protein as a band on a membrane.
Experimental: Data in a–d are presented as means ± SEM, n = 8. e The EGFR–TRIB3 or EGFR–PKCα interaction in xenograft tumors from indicated mice were detected with CO-IP assays. […] Data are means ± SEM of three independent assays. Statistical significance between two groups was determined with two-tailed Student’s t test. Statistical significance among groups was determined by one-way ANOVA test.
Data are means ± SEM, n = 8. d, EGFR and its signaling proteins in xenograft tumors from NCI-H1975 inoculated mice were detected by IB. e, Stem cell markers in xenograft tumors from NCI-H1975 inoculated mice mice were detected by IB. f, Expressions of TRIB3 and EGFR were detected by IB in tumor samples from PDX mice. g, NCI-H1975 cells were treated with 5 µM of the indicated peptides or 0.5 µM AZD9291for 24 hr. The expression of indicated proteins was detected with IB. h, NCI-H1975 cells were treated with 5 µM of the indicated peptides for 24 hr. The expression of several receptor tyrosine kinases was detected with IB. i, NCI-H1975 cells were pretreated with 5 µM of the indicated peptides for 12 hr. […] The indicated proteins were detected by IB. […] Statistical significance between two groups was determined by two-tailed Student’s t-test; Statistical significance among groups was determined by one-way ANOVA test. […]
analysis. Signals were detected by Tanon 5200 chemiluminescent imaging system (Tanon, […]
Test [2] relates to NCI-H1975 cells. Put plainly: NCI-H1975 subcutaneous xenograft (tumor growth, tumor weight, metastasis). The settings on record: dose not given. The class given is in vivo, BALB/c nude mice.
Test [3] deals with NCI-H1975 cells. Kind of test: Immunoblot of EGFR, HER2 and receptor tyrosine kinases, NCI-H1975 cells. The class given is cell-based, human.
Experimental: Data are means ± SEM, n = 8. d, EGFR and its signaling proteins in xenograft tumors from NCI-H1975 inoculated mice were detected by IB. e, Stem cell markers in xenograft tumors from NCI-H1975 inoculated mice mice were detected by IB. f, Expressions of TRIB3 and EGFR were detected by IB in tumor samples from PDX mice. g, NCI-H1975 cells were treated with 5 µM of the indicated peptides or 0.5 µM AZD9291for 24 hr. The expression of indicated proteins was detected with IB. h, NCI-H1975 cells were treated with 5 µM of the indicated peptides for 24 hr. The expression of several receptor tyrosine kinases was detected with IB. i, NCI-H1975 cells were pretreated with 5 µM of the indicated peptides for 12 hr. The cells were then incubated with CHX (10 µg ml-1) for indicated times. The indicated proteins were detected by IB. Data are means ± SEM of 3 independent assays. Data in d-h are representatives of 3 independent assays. Statistical significance between two groups was determined by two-tailed Student’s t-test; Statistical significance among groups was determined by one-way ANOVA test. Source data are provided as a Source Data ﬁle.
Immunoblotting, Immunostaining and Immunohistochemistry
Proteins were extracted from cells and tissues using a RIPA lysis buffer (Applygen
Technologies Inc. Beijing, China). Equal protein amounts were loaded for SDS-PAGE,
followed by transfer to polyvinylidene difluoride membranes, and subjected to immunoblot
analysis. Signals were detected by Tanon 5200 chemiluminescent imaging system (Tanon,
Shanghai, China). The western blots were scanning densitometry using Gel Pro Analyzer 3.2
and calculated relative to GAPDH. If not specifically indicated, the data was presented as means
± SEMs of 3 independent biological experiments.
Test [4] deals with A549 cells. Put plainly: A549 subcutaneous xenograft (tumor growth, tumor weight, liver metastasis). The class given is in vivo, BALB/c nude mice. The following applies: dose not given. The source says: Fig. 7 Targeting EGFR stability inhibits lung cancer initiation and progression. a A549 tumor growth curves under different treatment. b Quantitative analysis of metastatic nodule numbers from mice as described in a. c NCI-H1975 tumor growth curves under different treatment. d Quantitative analysis of metastatic nodule numbers from mice as described in c. Data in a–d are presented as means ± SEM, n = 8. e The EGFR–TRIB3 or EGFR–PKCα interaction in xenograft tumors from indicated mice were detected with CO-IP assays. […] Statistical difference was determined by two-sided log-rank test, n = 14. i Survival curves for mice orthotopically lung implanted with NCI-H1975 cells under indicated treatment. […] Data are means ± SEM of three independent assays. Statistical significance between two groups was determined with two-tailed Student’s t test. Statistical significance among groups was determined by one-way ANOVA test. Source data are provided as a Source Data file. […]
a, Quantified tumor weight from mice subcutaneously inoculated with A549 cells under indicated treatment after tumor inoculation. Data are means ± SEM, n = 8. b, Representative graphs of liver and immunohistochemical staining of the liver sections with anti-hMitochondria […]
IB. Data are means ± SEM of 3 independent assays. Data in d-h are representatives of 3 independent assays. Statistical significance between two groups was determined by two-tailed Student’s t-test; Statistical significance among groups was determined by one-way ANOVA test. Source data are provided as a Source Data ﬁle.
For the subcutaneous tumor model, A549 (1.0×10 5), NCI-H1975 (3.0×105) or patient-derived NSCLC cancer cells (4.0×105) were injected subcutaneously into the right flank of each mouse to establish the NSCLC xenograft model. When average tumor volume reached about 100 mm3, mice were randomized into various groups for different sets of experiments. Tumor growth was monitored twice weekly with a caliper. Tumor volume (TV) was calculated using the formula: […]

In test [5] the test system is cell surface EGFR in NCI-H157 cells. Kind of test: Cell surface EGFR by flow cytometry, NCI-H157. The class given is cell-based, human. The settings on record: TRIB3-overexpressing NCI-H157 cells, 10 µM monensin 4 hr, EGF 100 ng ml-1 1 hr. As for the experimental part:
Supplementary Figure 2 Overexpression of TRIB3 promotes EGFR recycling. […]
a, NCI-H157 cells and NCI-H157 cells stably expressed TRIB3 were non-stimulated or EGF […]
(100 ng ml-1) stimulated for indicated times. Co-localization of EGFR with EEA1 was analyzed […]
with confocal microscopy, quantification of EGFR and EEA1 colocalization was shown as […]
Pearson’s coefﬁcient. Data are means ± SEM of 3 independent assays. b, Gating strategy to […]
determine surface EGFR level presented in figure 2d and supplementary figure 2c. c, […]
Quantitative analyses of cell surface EGFR in NCI-H157 cells stably expressed Empty-Vector […]
or TRIB3-HA expression plasmid. Cells were pre-incubated with DM SO or 10 µM monensin […]
cell surface was detected by flow cytometry analysis. […]
detected in NCI-H157 cells with or without TRIB3-HA stably ectopic expression (d); or in NCI- […]
localization of EGFR with Rab11 and LAMP1. Quantification of EGFR/Rab11 or […]
3 independent assays. Statistical significance between two groups was determined with two- […]
tailed Student’s t-test. Statistical significance among groups was determined by one-way ANOVA test. […]
Live cells were stained with Alexa-Fluro 488 anti-EGFR antibody (Santa Cruz, R-1, #sc-101 AF488, 1:100). Analysis was performed using a PARTEC EPICSXL (Germany) and data was analyzed using FCS Express 6. […]
In general terms: Flow cytometry measures light scatter and fluorescence of single cells or particles in a stream.

Test [6] has as its system A549 cells. Put plainly: CCK-8 cell viability / cytotoxicity, A549. The test is classed as cell-based. The settings on record: Homo sapiens, read-out: IC50 of pemetrexed, A549, before sensitization.
Experimental: (§1) CCK-8 was conducted to detect the cell viability in cell proliferation and cytotoxicity assays
(§2) according to the manufacturer’s instructions (Dojindo Inc., Kumamoto, Japan). Cells were
(§3) plated in 96-well plates, starting at 3,000 cells/well. For cytotoxicity assay, the cells were
(§4) treated with indicated drugs, then a mixture of 10 µl CCK-8 solution and 90 µl complete culture
(§5) medium was added into each well. After 1 hr of incubation, the absorbance was measured at
Test [7] has as its system NCI-H1975 cells. Put plainly: CCK-8 cell viability / cytotoxicity, NCI-H1975. The test is classed as cell-based. The following applies: Homo sapiens.
Experimental: as §1, §2, §3, §4, §5
Test [8] concerns cell surface EGFR in A549 cells. Put plainly: Cell surface EGFR by flow cytometry, A549. The class given is cell-based, human. The procedure:
Fig. 2 TRIB3 promotes EGFR recycling to enhance its stability and signaling activity. a Control or TRIB3-silenced A549 cells were treated with cycloheximide (CHX) (10 µg ml^−1) at indicated intervals and protein stability of EGFR was analyzed by IB. Data are means ± SEM of four independent assays. b A549 cells stably expressed control-shRNA or TRIB3-shRNA plasmid were stimulated with or without EGF (100 ng ml^−1) for 1 h. Indicated proteins were analyzed by IB analysis. Data represent means ± SEM of three independent assays. c Confocal microscopy images show the distribution of EGFR and early endosome antigen 1 (EEA-1) in control or TRIB3-silenced A549 cells before and after 0.5 or 1 h of EGF (100 ng ml^−1) stimulation. Quantification of EGFR and EEA-1 colocalization was shown as Pearson’s coefficient. Data are means ± SEM of three independent assays. d Quantitative analyses of cell surface EGFR in A549 cells stably expressed control-shRNA or TRIB3-shRNA1. Cells were preincubated with DMSO or 10 μM monensin for 4 h, and then treated with or without EGF (100 ng ml^−1) for another 1 h. The Mean Fluorescence Intensity (MFI) of EGFR on cell surface was detected by flow cytometry analysis. Top: representative flow cytometry data. Bottom: the data were normalized to A549/control-shRNA cells without EGF stimulation, which was considered as 100% MFI signal. Data are means ± SEM of three independent assays. e EGFR recycling was detected in A549 cells stably expressed control-shRNA or TRIB3-shRNA1 plasmid. Data are means ± SEM of three independent assays. f Colocalization analysis of EGFR with Rab11 and LAMP-1 before or after 30 min EGF treatment in control and TRIB3-silenced A549 cells. Quantification of EGFR/Rab11 or EGFR/LAMP-1 colocalization was shown as Pearson’s coefficient. Data represent means ± SEM of three independent assays. Statistical significance between two groups was determined with two-tailed Student’s t test. Statistical significance among groups was determined by one-way ANOVA test. Source data are provided as a Source Data file. […]
Live cells were stained with Alexa-Fluro 488 anti-EGFR antibody (Santa Cruz, R-1, #sc-101
AF488, 1:100). Analysis was performed using a PARTEC EPICSXL (Germany) and data was
analyzed using FCS Express 6. […]

The mark [9] stands for this setting: H1975 cells, treatment for 12 hr.

Read-outs that look alike come from different tables or passages of the source.

For the compound `C=CC(=O)Nc1cc(Nc2nccc(-c3cn(C)c4ccccc34)n2)c(OC)cc1N(C)CCN(C)C` [AZD9291], the “expression / phosphorylation of STAT3, STAT5 (and ERK1/2) in xenograft tumor tissue” value in test [1] is “upregulated the expression and phosphorylation of STAT3, STAT5, and ERK1/2”. In test [1], the “expression of EGFR and TRIB3 in xenograft tumor tissue” value is “reduced TRIB3 and EGFR expression”. Also, the “Tumor Weight” value in test [2] (animal 1) amounted to 0.09 g; in test [2] (animal 2), 0.11 g; in test [2] (animal 3), 0.04 g; in test [2] (animal 4) it was 0.05 g; in test [2] (animal 5) it was 0.07 g; in test [2] (animal 6), 0.08 g. Besides, the “Tumor Weight” value in test [2] (animal 7) came out at 0.02 g; in test [2] (animal 8), 0.08 g. In addition, in test [3] (setting [9]), the “expression of pEGFR T654, PKCα, TRIB3 and EGFR” value is given as “had no effect”. The “pEGFR Y1068” value in test [3] (setting [9]) is listed as “markedly reduced”. Besides, the “phosphorylation and expression of HER2” value in test [3] (NCI-H1975 cells, 5 µM peptide or 0.5 µM AZD9291, 24 hr) is given as “suppressive effect on HER2 phosphorylation”.
Consider `COc1cc2ncnc(Nc3ccc(F)c(Cl)c3)c2cc1OCCCN1CCOCC1` [gefitinib], for which the “Tumor Weight” value in test [4] (animal 1) is 0.95 g; in test [4] (animal 2), 0.28 g; in test [4] (animal 3) it was 0.5 g; in test [4] (animal 4), 0.76 g; in test [4] (animal 5) it was 0.71 g; in test [4] (animal 6), 0.63 g. In addition, the “Tumor Weight” value in test [4] (animal 7) came out at 0.92 g; in test [4] (animal 8), 0.87 g; in test [2] (animal 1), 0.19 g; in test [2] (animal 2), 0.56 g; in test [2] (animal 3), 0.23 g; in test [2] (animal 4) it was 0.63 g. Moreover, the “Tumor Weight” value in test [2] (animal 5) came out at 0.13 g; in test [2] (animal 6), 0.48 g; in test [2] (animal 7), 0.33 g; in test [2] (animal 8), 0.37 g.
As for `CC[C@@]1([C@@H]2O[C@@H]([C@H]3O[C@@](O)(CO)[C@H](C)C[C@@H]3C)C[C@@H]2C)CC[C@H]([C@]2(C)CC[C@]3(C[C@H](O)[C@@H](C)[C@@H]([C@@H](C)[C@@H](OC)[C@H](C)C(=O)O)O3)O2)O1` [monensin], the EGFR membrane level result in test [5] is “reduced the EGFR membrane level”.
As usually defined, the IC50 is the midpoint of a concentration-inhibition curve. For `Nc1nc2[nH]cc(CCc3ccc(C(=O)N[C@@H](CCC(=O)O)C(=O)O)cc3)c2c(=O)[nH]1` [pemetrexed], the IC50 in test [6] is 245 nM; in test [7] (NCI-H1975, read-out: IC50 of pemetrexed, H1975, sensitized by SAH-JGZ4), 793 nM; in test [7] (NCI-H1975, read-out: IC50 of pemetrexed, H1975, before sensitization) it was 3170 nM.
For the compound “EGF: epidermal growth factor used as stimulus, 100 ng ml−1”, the “Cell Surface EGFR(%MFI)” value in test [8] (A549/Control-shRNA, DMSO or 10 μM monensin 4 h, then EGF 100 ng ml−1 1 h, flow cytometry, A549/control-shRNA without EGF = 100%, replicate 1) is given as 80.5481 %MFI; in test [8] (A549/Control-shRNA, same treatment, replicate 2) it was 86.3646 %MFI; in test [8] (A549/Control-shRNA, same treatment, replicate 3) it was 89 %MFI; in test [8] (A549/TRIB3-shRNA, DMSO or 10 μM monensin 4 h, then EGF 100 ng ml−1 1 h, flow cytometry, A549/control-shRNA without EGF = 100%, replicate 1), 27.82 %MFI; in test [8] (A549/TRIB3-shRNA, same treatment, replicate 2) it was 26.66 %MFI; in test [8] (A549/TRIB3-shRNA, same treatment, replicate 3) it was 25.66 %MFI.
